Each molecule was assayed against T1, NL20 human bronchial epithelial cells expressing human Z-AAT (Homo sapiens, UniProt P01009, E366K) (assay: AAT Function Assay (MSD Assay NL20-SI Cell Line)). Details: functionally active AAT (AAT-hNE complex) in supernatant of NL20 cells expressing human Z-AAT; read-out: NL20 Func. (EC50).
T1 construct: expressed in transfected cells; host or cells: NL20 human bronchial epithelial cells (NL20-SI line, doxycycline added)
Assay type: cell-based
Outline: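 NL20 cells expressing Z-AAT, seeded 16,000 cells/well, received compound with doxycycline (0.1 μM final) and were incubated overnight at 37° C. Supernatants, diluted 45-fold in total, reacted with excess human neutrophil elastase; AAT-elastase complex captured on anti-AAT plates, detected with Sulfo-tagged anti-elastase by MSD electrochemiluminescence, and quantified against M-AAT standards (0.156-320 ng/mL).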

T1 sequence (P01009 25-418 E366K): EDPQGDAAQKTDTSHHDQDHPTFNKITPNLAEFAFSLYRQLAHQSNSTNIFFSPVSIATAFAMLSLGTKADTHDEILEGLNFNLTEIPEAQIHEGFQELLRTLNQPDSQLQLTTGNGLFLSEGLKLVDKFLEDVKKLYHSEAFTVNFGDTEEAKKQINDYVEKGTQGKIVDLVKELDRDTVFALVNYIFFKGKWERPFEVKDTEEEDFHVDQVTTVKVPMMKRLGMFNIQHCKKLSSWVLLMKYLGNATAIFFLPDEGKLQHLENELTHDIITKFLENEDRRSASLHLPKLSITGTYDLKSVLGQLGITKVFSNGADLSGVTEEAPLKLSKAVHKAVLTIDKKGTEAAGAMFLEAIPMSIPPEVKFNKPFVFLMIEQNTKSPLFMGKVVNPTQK

SMILES | EC50
Cc1cc(-n2c(C3CCOCC3)c(C3CC(CC(=O)O)C3)c3cc4[nH]ncc4cc32)ccc1F (mixture of isomers) [Compound 93] | 1160 to 3000 nM
Cc1cc(-n2c(C(C)C)cc3cc4[nH]ncc4cc32)ccn1 [Compound 43, 6-isopropyl-5-(2-methyl-4-pyridyl)-1H-pyrrolo[2,3-f]indazole] | > 3000 nM
Cc1cc(-n2c(C(C)C)c(C3CC4(CC(C(=O)O)C4)C3)c3cc4[nH]nc(C)c4cc32)ccc1F (racemic) [Compound 56, 6-[5-(4-fluoro-3-methyl-phenyl)-6-isopropyl-3-methyl-1H-pyrrolo[2,3-f]indazol-7-yl]spiro[3.3]heptane-2-carboxylic acid] | 1160 to 3000 nM
O=C(OCc1ccccc1)N1CCCC(Cc2c(C3CCOCC3)n(-c3ccc(F)cc3)c3cc4cn[nH]c4cc23)C1 (centres unmarked) [Compound 154, benzyl 3-[[5-(4-fluorophenyl)-6-tetrahydropyran-4-yl-M-pyrrolo[2,3-f]indazol-7-yl]methyl]piperidine-1-carboxylate] | 1160 to 3000 nM
CC(C)(CC#N)c1c(CCC(N)=O)c2cc3[nH]ncc3cc2n1-c1ccc(F)cc1 [Compound 191, 3-[6-(2-cyano-1,1-dimethyl-ethyl)-5-(4-fluorophenyl)-1H-pyrrolo[2,3-f]indazol-7-yl]propanamide] | > 3000 nM
O=S1(=O)CCCN1CCCc1c(C2CCOCC2)n(-c2ccc(F)cc2)c2cc3cn[nH]c3cc12 [Compound 150] | 1160 to 3000 nM
CC(C)c1c(C23CC(C(=O)O)(C2)C3)c2cc3[nH]ncc3cc2n1-c1ccc(F)cc1 [Compound 210, 3-(5-(4-fluorophenyl)-6-isopropyl-1,5-dihydropyrrolo[2,3-f]indazol-7-yl)bicyclo[1.1.1]pentane-1-carboxylic Acid] | < 1160 nM
Cc1cc(-n2c(C(C)C)c(C3CC(C(=O)O)C3)c3cc4[nH]ncc4cc32)ccc1F (mixture of isomers) [Compound 18] | < 1160 nM
O=C(O)C1CC2(C1)CC(c1c(C3CCOCC3)n(-c3ccc(F)c(F)c3)c3cc4cn[nH]c4c(Br)c13)C2 (centres unmarked) [Compound 134, 6-[8-bromo-5-(3,4-difluorophenyl)-6-tetrahydropyran-4-yl-1H-pyrrolo[2,3-f]indazol-7-yl]spiro[3.3]heptane-2-carboxylic Acid] | < 1160 nM
Cc1cc(-n2c(C3CCOCC3)c(C[C@H]3CC[C@H](C(=O)O)CC3)c3cc4[nH]ncc4cc32)ccc1F (single isomer, unassigned) [Compound 106] | < 1160 nM
CCOC(=O)[C@@H]1C[C@@H]1c1c(C(C)C)n(-c2ccc(F)c(C)c2)c2cc3cn[nH]c3cc12 (racemic) [Compound 15, ethyl (1R,2S)-2-[5-(4-fluoro-3-methyl-phenyl)-6-isopropyl-1H-pyrrolo[2,3-f]indazol-7-yl]cyclopropanecarboxylate] | > 3000 nM
Cc1cc(-n2c(C3CCOCC3)c(CCC(=O)O)c3cc4[nH]ncc4cc32)ccc1F [Compound 86] | > 3000 nM
CC(C)c1c(CCC(=O)O)c2cc3[nH]ncc3cc2n1-c1cccc(C(F)F)c1 [Compound 37, 3-[5-[3-(difluoromethyl)phenyl]-6-isopropyl-1H-pyrrolo[2,3-f]indazol-7-yl]propanoic Acid] | > 3000 nM
Cc1cc(-n2c(C(C)C)c([C@H]3C[C@@H](CC(=O)O)C3)c3cc4[nH]ncc4cc32)ccc1F [Compound 23] | < 1160 nM
[2H]C([2H])(C(=O)O)C([2H])([2H])c1c(C(C)C)n(-c2ccc(F)cc2)c2cc3cn[nH]c3cc12 [Compound 171, 2,2,3,3-tetradeuterio-3-[5-(4-fluorophenyl)-6-isopropyl-1H-pyrrolo[2,3-f]indazol-7-yl]propanoic Acid] | < 1160 nM
O=C(O)[C@H]1CC[C@H](Cc2c(C3CCOCC3)n(-c3ccc(F)c(Cl)c3)c3cc4cn[nH]c4cc23)CC1 [Compound 84] | 1160 to 3000 nM
Cc1cc(-n2c(C(C)C)cc3c(C)c4[nH]ncc4cc32)ccc1F [Compound 49, 5-(4-fluoro-3-methyl-phenyl)-6-isopropyl-8-methyl-1H-pyrrolo[2,3-f]indazole] | > 3000 nM
